{"source": "paper PMC10802587", "about": "(bioRxiv, 2024)", "key": {"hMAGL": {"biological_target": "T1, hMAGL (Homo sapiens, UniProt Q99685)", "T1 sequence (Q99685 1-303)": "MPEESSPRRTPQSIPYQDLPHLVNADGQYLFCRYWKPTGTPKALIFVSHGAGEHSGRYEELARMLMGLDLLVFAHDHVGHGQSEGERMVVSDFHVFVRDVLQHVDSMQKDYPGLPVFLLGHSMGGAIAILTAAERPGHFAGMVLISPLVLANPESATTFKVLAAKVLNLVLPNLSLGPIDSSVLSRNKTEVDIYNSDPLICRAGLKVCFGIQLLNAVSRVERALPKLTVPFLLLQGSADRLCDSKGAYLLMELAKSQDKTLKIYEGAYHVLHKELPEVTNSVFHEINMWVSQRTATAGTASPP", "experiment": "hMAGL inhibition assay", "type": "biochemical"}, "[1]": {"system": "synchronized ring stage W2 parasites", "experiment": "72-hour parasite growth", "type": "cell-based, P. falciparum", "settings": "for EC50: Plasmodium falciparum"}, "W2 ring stage cultures [2]": {"system": "W2 ring stage cultures", "experiment": "Stage specific killing assay", "type": "cell-based, P. falciparum", "settings": "10 μM, ring stage W2 parasites, smears every twelve hours"}, "[3]": {"system": "global palmitoylation in infected red blood cells", "experiment": "Global palmitoylation", "type": "cell-based, P. falciparum", "settings": "after 16 hours 17-ODYA incubation"}, "recombinant PfMAGL": {"biological_target": "recombinant PfMAGL (Plasmodium falciparum, UniProt Q8IJ22)", "sequence (Q8IJ22 1-359)": "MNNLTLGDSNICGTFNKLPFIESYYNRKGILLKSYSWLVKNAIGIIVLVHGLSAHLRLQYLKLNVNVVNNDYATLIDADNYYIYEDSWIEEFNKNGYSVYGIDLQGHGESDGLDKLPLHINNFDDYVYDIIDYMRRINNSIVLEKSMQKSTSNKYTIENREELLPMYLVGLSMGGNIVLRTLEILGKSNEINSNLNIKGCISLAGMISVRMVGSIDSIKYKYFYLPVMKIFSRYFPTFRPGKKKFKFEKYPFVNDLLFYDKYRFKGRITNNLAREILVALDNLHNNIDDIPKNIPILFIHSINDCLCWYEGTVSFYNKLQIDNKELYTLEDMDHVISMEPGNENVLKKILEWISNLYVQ", "type": "biochemical, P. falciparum"}, "3D7 ring-stage parasites [4]": {"system": "3D7 ring-stage parasites", "settings": "known fast, medium, slow acting inhibitors; ref Sanz et al., 2012; cited from earlier work"}, "[5]": {"system": "abH112 cKD and control NF54 parasites", "experiment": "Susceptibility of abH112 cKD and NF54 parasites +/- aTC", "type": "cell-based, P. falciparum", "settings": "presence and absence of aTC"}, "3D7 ring-stage parasites [6]": {"system": "3D7 ring-stage parasites", "experiment": "P. falciparum rate of kill assay", "type": "cell-based", "settings": "compared with chloroquine, pyrimethamine, atovaquone"}, "[7]": {"system": "synchronized W2 ring stage parasites", "experiment": "Lipidomic analysis of treated parasites", "type": "cell-based, P. falciparum", "settings": "900 nM, 24 hours versus DMSO (Figure 5B)"}, "[8]": {"system": "Human Foreskin Fibroblasts", "experiment": "Human cell cytotoxicity assay", "type": "cell-based", "settings": "at concentrations up to 50 μM, 72 h, HFF"}, "[9]": {"system": "SalA resistant Dd2-Polδ lines (PRELI domain-containing protein mutants)", "experiment": "In vitro drug susceptibility assay, SalA selected PRELI mutant lines", "type": "cell-based, P. falciparum"}, "parasite food vacuole": {"system": "parasite food vacuole", "experiment": "Food vacuole visualization", "type": "cell-based, P. falciparum", "settings": "5 μM for 16 hrs; reduction not significant"}, "W2 ring stage cultures [10]": {"system": "W2 ring stage cultures", "settings": "ref Yoo et al., 2020; cited from earlier work"}, "[11]": {"settings": "72 h, read-out: EC50 parasite growth"}}, "note": "Entries after “also recorded” stand apart in the source; their conditions may differ. Like-named read-outs stand apart in the source and are kept apart here.", "data": [{"smiles": "C#CCCCCP(=O)(OCC)Oc1ccc(S(=O)(=O)F)cc1", "note": "(stereo not drawn) [Compound 2]", "values": [{"measurement": "potency against hMAGL (in words)", "setting": "hMAGL", "value": "highest potency"}, {"measurement": "EC50", "setting": "[1]; [11]", "value": 1600, "unit": "nM"}]}, {"smiles": "CCCCCCCCCCCCCCCP(=O)(OCC)Oc1c(F)cccc1F", "note": "(stereo not drawn) [Compound 21]", "values": [{"measurement": "blood stage where growth was arrested", "setting": "W2 ring stage cultures [2]", "value": "progressed through the blood stage lifecycle"}, {"measurement": "changes in global palmitoylation", "setting": "[3]", "value": "did not observe any changes in global palmitoylation"}, {"measurement": "parasite killing", "setting": "[1]; at concentrations up to 20 μM, 72 hours, W2", "value": "no killing"}, {"measurement": "potency against recombinant PfMAGL (in words)", "setting": "recombinant PfMAGL", "value": "picomolar inhibitors; also recorded: pM inhibitors"}]}, {"smiles": "CCc1nc(N)nc(N)c1-c1ccc(Cl)cc1", "note": "[pyrimethamine]", "values": [{"measurement": "rate of kill class of known inhibitors", "setting": "3D7 ring-stage parasites [4]", "value": "medium"}]}, {"smiles": "CCCCCCCCCCCCCCC(Br)C(=O)O", "note": "(stereo not drawn) [Compound 2-BP, 2-bromopalmitate, reference compound]", "values": [{"measurement": "changes in global palmitoylation", "setting": "[3]", "value": "changes in patterns of palmitoylation"}]}, {"smiles": "CCCCCCCCCCCCCCCP(=O)(OCC)Oc1cc(F)cc(F)c1", "note": "(stereo not drawn) [Compound 22]", "values": [{"measurement": "blood stage where growth was arrested", "setting": "W2 ring stage cultures [2]", "value": "arrested in growth at 24 hours"}, {"measurement": "effect of abH112 knockdown on parasite susceptibility to compound", "setting": "[5]", "value": "did not affect parasite susceptibility"}, {"measurement": "rate of kill (in words)", "setting": "3D7 ring-stage parasites [6]", "value": "faster than pyrimethamine, but not as fast as chloroquine"}, {"measurement": "changes in lipid classes", "setting": "[7]", "value": "downregulation of both ceramides and diacylglycerides"}, {"measurement": "impact on mammalian cell viability", "setting": "[8]", "value": "no impact on mammalian cell viability"}, {"measurement": "changes in global palmitoylation", "setting": "[3]", "value": "did not observe any changes in global palmitoylation"}, {"measurement": "increase in EC50, PRELI mutant parasites compared to Dd2-Polδ parental line", "setting": "[9]", "value": "7–10 fold"}, {"measurement": "rescue of killing phenotype by palmitate and oleate supplementation", "setting": "[1]; 5 µM compound, 30 µM palmitate, oleate or both, 72 hours", "value": "did not rescue"}, {"measurement": "drop in potency, 1 hour pulse compared to continuous treatment", "setting": "[1]; 1 hour treatment followed by washout", "value": "ten-fold drop in potency"}, {"measurement": "EC50", "setting": "[1]; [11]", "value": 188, "unit": "nM"}, {"measurement": "EC50", "setting": "[1]; read-out: EC50 after 1 hour treatment and washout", "value": 1330, "unit": "nM"}, {"measurement": "potency against recombinant PfMAGL (in words)", "setting": "recombinant PfMAGL", "value": "picomolar inhibitors; also recorded: pM inhibitors"}, {"measurement": "food vacuole size", "setting": "parasite food vacuole", "value": "small reduction in food vacuole size"}]}, {"smiles": "CCN(CC)CCCC(C)Nc1ccnc2cc(Cl)ccc12", "note": "(stereo not drawn) [chloroquine]", "values": [{"measurement": "rate of kill class of known inhibitors", "setting": "3D7 ring-stage parasites [4]", "value": "fast"}]}, {"smiles": "CCCCCCCCCCC[C@@H](C[C@@H]1OC(=O)[C@H]1CCCCCC)OC(=O)[C@H](CC(C)C)NC=O", "note": "[Orlistat]", "values": [{"measurement": "blood stage where progression is blocked", "setting": "W2 ring stage cultures [10]", "value": "block progression at the late schizont stage"}]}, {"smiles": "O=C1C(O)=C([C@H]2CC[C@H](c3ccc(Cl)cc3)CC2)C(=O)c2ccccc21", "note": "[atovaquone]", "values": [{"measurement": "rate of kill class of known inhibitors", "setting": "3D7 ring-stage parasites [4]", "value": "slow"}]}]}
